Measured values: patent publication US20080208071A1, “Measurement of Gastric Acid Secretion” (THE LEEDS TEACHING HOSPITALS NHS TRUST, priority 2005, published 2008)

Columns and labels:
gastric acid secretion [1] = test: 13C calcium carbonate breath test, Example 2 (initial 2 g, then 500 mg every 5 minutes over 3 hours); settings: human volunteer; oral 2 g then 500 mg calcium carbonate (10 atom % 13C) every 5 minutes over 3 hours; two experiments; FIG. 4
gastric acid secretion [2] = test: 13C calcium carbonate breath test, Example 1 (250 mg every 15 minutes over 4 hours); settings: human volunteer; oral 250 mg calcium carbonate (10 atom % 13C) every 15 minutes over 4 hours; two experiments; FIG. 1
Protocol: At 10 minute intervals, samples of exhaled (expired) air were obtained from the subject by breathing into a suitable collection vessel such as a test tube. The expired air was subjected to mass spectrometry to measure the ratio of ^13C to ^12C in the exhaled carbon dioxide.
In a second experiment the subject was treated with omeprazole 20 mg daily for two weeks and the experiment repeated twice under otherwise identical conditions.
The subject then did two further experiments again under otherwise identical conditions but now including a daily dosage of 40 mg of omeprazole.

Structure (SMILES): O=C([O-])[O-].[Ca+2] [^13C labelled calcium carbonate, calcium carbonate]
- time at which the rise in 13C in exhaled carbon dioxide begins to plateau (gastric acid secretion [1]): about 120 minutes
- time at which the rise in 13C in exhaled carbon dioxide begins to plateau (gastric acid secretion [2]): about 120 minutes
